Results on five molecules are retold here after patent US8697158B2, “Mineral amino acid polysaccharide complex” (Melaleuca, Inc., priority 2008, dated 2014).

The nature of data set [1]: Hydroxyl radical formation (EPR, DMPO spin trapping). As to conditions: metal 800 μM, DMPO 18.7 mM, H2O2 61 mM, HEPES pH 7.2; relative to AAC. The protocol:
The rate of hydroxyl radical formation catalyzed by a complex comprising an iron- or copper-amino acid inulin complex was compared to the iron- or copper-amino acid compound alone.
Mineral (Cu or Fe) was dissolved in 10 mM HEPES buffer (pH 7.2) containing DMPO. Iron and copper were used in the form of amino acid compounds (i.e., glycinates; AAC) and as amino acid inulin complexes (1:9 w/w; AAC/OF). Hydrogen peroxide was added 90 seconds prior to measurement.
The spin trapping reagent—5,5-dimethylpyrroline-N-oxide (DMPO) was used for monitoring hydroxyl radical.
The relative signal amplitudes for DMPO/hydroxyl radical adduct, which can be correlated to the concentration of hydroxyl radical present in the solution, was measured (Table 3).

Data set [2] is described as follows: Ascorbyl radical kinetics (EPR), iron-catalyzed ascorbic oxidation. As to conditions: for relative amplitude of the ascorbyl radical signal: iron solution 0.9 mM, ascorbic acid 4.04 mM, HEPES pH 7.2. The protocol: Samples of iron(II) sulfate, iron(II) bis-glycinate (FeAAC), and an iron(II) bis-glycinate inulin complex (FeAAC/OF; ratio 1:10 w/w) were analyzed using EPR spectroscopy to determine their ability to generate the ascorbate radical, i.e. to catalyze ascorbic oxidation. The samples were dissolved in 10 mM HEPES buffer (pH 7.2) to a final concentration 0.9 mM of iron.
The iron solutions were mixed with the ascorbic acid solution, and the mixture was transferred into capillary tubes for measurement. Multiple readings were performed over 30 minutes.
EPR measurements were performed in 50 μL capillary tubes at room temperature using a Bruker ER-200 X-band EPR spectrometer.
The relative amplitudes of the ascorbyl radical signal, which can be correlated to the concentration of ascorbyl radical present in the solution, were measured (Table 2).

The nature of data set [3]: Mineral solubility at conditions close to physiological. The note with it: one hour at pH 1-1.2, then one hour at pH 7-7.2; supernatant after centrifugation. The method, then:
Two forms of zinc, copper, and iron were tested for solubility at conditions close to physiological. […] Samples, in an amount equivalent to 20 tablets, were suspended in 20 mL of water. The pH was adjusted to 1-1.2 and maintained for one hour, simulating a gastric environment. After the first hour, the pH was adjusted to 7-7.2 and maintained for another hour, simulating an intestinal environment. The product was then centrifuged and the supernatant taken for analysis.

Data set [4] can be described thus: Copper-mediated oxidation of Trolox (Fenton system, EPR).
Experimental: The one-electron oxidation of Trolox results in the formation of a phenoxyl radical that is readily detected by EPR. All EPR measurements were done in using a Bruker ER-200 X-band EPR spectrometer. Samples (50 μL) in capillary tubes (0.5 mm i.d.) were examined at room temperature.

For the molecule `NCC(=O)[O-].NCC(=O)[O-].[Cu+2]` [Cu AAC], in data set [1], the “relative signal amplitude for DMPO/hydroxyl radical adduct” value was 100%.

Consider `NCC(=O)[O-].NCC(=O)[O-].[Fe+2]` [FeAAC, iron(II) bis-glycinate], for which, in data set [2] (compared with the iron sulfate), the “stabilization (lifetime) of the ascorbyl radical” value is recorded as “longer period of time”. Also, the “relative amplitude of the ascorbyl radical signal” value (“relative amplitude” below) is listed as 100% in data set [2] (time 1.5 min); 74% in data set [2] (time 3.5 min); 65% in data set [2] (time 5.5 min); 47% in data set [2] (time 10.0 min); 33% in data set [2] (time 14.0 min); 19% in data set [2] (time 20.0 min). Besides, in data set [2] (time 28.0 min), the “relative amplitude” value worked out at 19%. Moreover, the “relative signal amplitude for DMPO/hydroxyl radical adduct” value in data set [1] worked out at 100%.

On to `O=S(=O)([O-])[O-].[Fe+2]` [FeSO4, iron(II) sulfate], for which the “relative amplitude” value was found to be 100% in data set [2] (time 1.5 min); 76% in data set [2] (time 3.5 min); 64% in data set [2] (time 5.5 min); 24% in data set [2] (time 10.0 min); 14% in data set [2] (time 14.0 min); 10% in data set [2] (time 20.0 min). Also, in data set [2] (time 28.0 min), the “relative amplitude” value is on record as 5%.

On to `[O-2].[Zn+2]` [Zinc Inorganic Form, zinc oxide], for which, in data set [3], the “percent of solubilized mineral” value was determined as 1.2%.

For the molecule gluconate, the “EPR signal of the Trolox free radical, reduction compared to CuSO4” value in data set [4] is on record as “about 15%”.
